“And” between values parts separate entries of the source, which are not always exact repeats. Equal values may be shown once. Marks after values point to notes of the source that are not given here. Non-standard residues stand in square brackets, D forms with d. Residues, ends and D or L forms follow the SMILES beside them. *: point of attachment. Asu = N[C@@H](CCCCCC(=O)O)C(=O)O; NHOH = ON*
Columns and labels:
Assay type in all cases: biochemical
HDAC8 = molecular target: T1, HDAC8 (Homo sapiens, UniProt Q9BY41); assay: HDAC inhibition assay (fluorogenic, Ac-Leu-Gly-Lys(Tfa)-AMC); details: HDAC8, replicates
T1 construct: HDAC8 (full length, C-terminal His tag, BPS Bioscience, cat. #: 50008); purchased BPS Bioscience 50008
T1 sequence (Q9BY41 1-377): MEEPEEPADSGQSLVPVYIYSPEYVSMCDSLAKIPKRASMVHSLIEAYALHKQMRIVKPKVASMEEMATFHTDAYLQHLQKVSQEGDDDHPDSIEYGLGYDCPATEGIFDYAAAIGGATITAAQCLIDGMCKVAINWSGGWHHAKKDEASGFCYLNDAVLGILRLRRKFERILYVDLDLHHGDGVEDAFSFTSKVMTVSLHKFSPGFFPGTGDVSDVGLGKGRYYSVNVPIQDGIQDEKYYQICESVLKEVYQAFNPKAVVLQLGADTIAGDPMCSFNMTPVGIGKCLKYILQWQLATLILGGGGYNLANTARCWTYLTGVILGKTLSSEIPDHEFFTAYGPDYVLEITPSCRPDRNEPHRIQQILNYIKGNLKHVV

HDAC2 = molecular target: T2, HDAC2 (Homo sapiens, UniProt Q92769); assay: HDAC inhibition assay (fluorogenic, Ac-Leu-Gly-Lys(Ac)-AMC); details: HDAC2, replicates
T2 construct: HDAC2 (full length, C-terminal His tag, BPS Bioscience, cat. #: 50002); purchased BPS Bioscience 50002
T2 sequence (Q92769 whole entry): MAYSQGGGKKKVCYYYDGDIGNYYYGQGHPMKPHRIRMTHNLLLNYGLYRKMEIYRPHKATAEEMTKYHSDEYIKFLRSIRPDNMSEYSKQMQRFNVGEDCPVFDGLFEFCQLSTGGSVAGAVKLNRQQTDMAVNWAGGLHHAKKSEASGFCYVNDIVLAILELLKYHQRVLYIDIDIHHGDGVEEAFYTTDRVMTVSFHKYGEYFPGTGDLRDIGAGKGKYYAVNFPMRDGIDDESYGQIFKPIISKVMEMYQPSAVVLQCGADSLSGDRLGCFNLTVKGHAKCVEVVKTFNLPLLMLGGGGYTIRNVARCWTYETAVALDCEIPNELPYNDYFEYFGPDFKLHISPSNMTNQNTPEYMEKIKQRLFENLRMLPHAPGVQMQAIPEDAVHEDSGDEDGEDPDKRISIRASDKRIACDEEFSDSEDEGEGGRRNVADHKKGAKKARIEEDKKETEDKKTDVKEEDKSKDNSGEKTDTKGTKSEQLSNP

HDAC1 = molecular target: T3, HDAC1 (Homo sapiens, UniProt Q13547); assay: as above; details: HDAC1, replicates
T3 construct: HDAC1 (full length, C-terminal His tag, C-terminal FLAG tag, BPS Bioscience, cat. #: 50051); FLAG (C); purchased BPS Bioscience 50051
T3 sequence (Q13547 whole entry): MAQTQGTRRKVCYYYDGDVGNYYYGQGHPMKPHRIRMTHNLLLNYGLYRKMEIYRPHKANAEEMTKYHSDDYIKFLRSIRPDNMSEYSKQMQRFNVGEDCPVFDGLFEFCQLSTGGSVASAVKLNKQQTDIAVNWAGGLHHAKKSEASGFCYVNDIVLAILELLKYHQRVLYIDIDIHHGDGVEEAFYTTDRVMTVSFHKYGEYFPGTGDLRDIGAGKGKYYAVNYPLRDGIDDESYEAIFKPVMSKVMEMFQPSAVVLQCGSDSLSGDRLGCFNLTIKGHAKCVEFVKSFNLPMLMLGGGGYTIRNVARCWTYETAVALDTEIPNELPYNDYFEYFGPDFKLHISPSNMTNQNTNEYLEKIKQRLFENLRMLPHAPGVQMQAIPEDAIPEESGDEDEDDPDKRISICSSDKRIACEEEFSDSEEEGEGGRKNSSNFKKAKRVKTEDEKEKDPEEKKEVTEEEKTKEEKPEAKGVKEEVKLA

HDAC3/NCoR2 = molecular target: T4, HDAC3/NCoR2 (Homo sapiens, UniProt O15379); assay: as above; details: HDAC3, replicates
T4 construct: HDAC3/NCoR2 (full length, C-terminal His tag, NCoR2 N-terminal GST tag); purchased BPS Bioscience 50003
T4 sequence (O15379 whole entry): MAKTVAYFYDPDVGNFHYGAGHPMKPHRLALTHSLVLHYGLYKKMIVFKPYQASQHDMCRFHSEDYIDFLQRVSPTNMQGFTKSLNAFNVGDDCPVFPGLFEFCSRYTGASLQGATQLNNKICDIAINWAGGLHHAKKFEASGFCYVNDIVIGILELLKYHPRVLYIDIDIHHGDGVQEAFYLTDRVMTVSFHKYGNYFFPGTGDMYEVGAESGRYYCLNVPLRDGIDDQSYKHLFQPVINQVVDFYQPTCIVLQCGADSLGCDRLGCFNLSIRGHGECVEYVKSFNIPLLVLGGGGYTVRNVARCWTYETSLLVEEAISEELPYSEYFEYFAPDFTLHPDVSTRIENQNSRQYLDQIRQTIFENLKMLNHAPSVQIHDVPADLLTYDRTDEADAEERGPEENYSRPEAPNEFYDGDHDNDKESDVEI
T4 sequence (Q9Y618 389-480 partner limits assumed): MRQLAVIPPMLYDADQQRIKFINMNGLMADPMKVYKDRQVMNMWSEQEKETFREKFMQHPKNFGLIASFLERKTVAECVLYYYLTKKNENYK

HDAC6 = molecular target: T5, HDAC6 (Homo sapiens, UniProt Q9UBN7); assay: as above; details: HDAC6, replicates
T5 construct: HDAC6 (full length, BPS Bioscience, cat. #: 50056); purchased BPS Bioscience 50056
T5 sequence (Q9UBN7 1-1215): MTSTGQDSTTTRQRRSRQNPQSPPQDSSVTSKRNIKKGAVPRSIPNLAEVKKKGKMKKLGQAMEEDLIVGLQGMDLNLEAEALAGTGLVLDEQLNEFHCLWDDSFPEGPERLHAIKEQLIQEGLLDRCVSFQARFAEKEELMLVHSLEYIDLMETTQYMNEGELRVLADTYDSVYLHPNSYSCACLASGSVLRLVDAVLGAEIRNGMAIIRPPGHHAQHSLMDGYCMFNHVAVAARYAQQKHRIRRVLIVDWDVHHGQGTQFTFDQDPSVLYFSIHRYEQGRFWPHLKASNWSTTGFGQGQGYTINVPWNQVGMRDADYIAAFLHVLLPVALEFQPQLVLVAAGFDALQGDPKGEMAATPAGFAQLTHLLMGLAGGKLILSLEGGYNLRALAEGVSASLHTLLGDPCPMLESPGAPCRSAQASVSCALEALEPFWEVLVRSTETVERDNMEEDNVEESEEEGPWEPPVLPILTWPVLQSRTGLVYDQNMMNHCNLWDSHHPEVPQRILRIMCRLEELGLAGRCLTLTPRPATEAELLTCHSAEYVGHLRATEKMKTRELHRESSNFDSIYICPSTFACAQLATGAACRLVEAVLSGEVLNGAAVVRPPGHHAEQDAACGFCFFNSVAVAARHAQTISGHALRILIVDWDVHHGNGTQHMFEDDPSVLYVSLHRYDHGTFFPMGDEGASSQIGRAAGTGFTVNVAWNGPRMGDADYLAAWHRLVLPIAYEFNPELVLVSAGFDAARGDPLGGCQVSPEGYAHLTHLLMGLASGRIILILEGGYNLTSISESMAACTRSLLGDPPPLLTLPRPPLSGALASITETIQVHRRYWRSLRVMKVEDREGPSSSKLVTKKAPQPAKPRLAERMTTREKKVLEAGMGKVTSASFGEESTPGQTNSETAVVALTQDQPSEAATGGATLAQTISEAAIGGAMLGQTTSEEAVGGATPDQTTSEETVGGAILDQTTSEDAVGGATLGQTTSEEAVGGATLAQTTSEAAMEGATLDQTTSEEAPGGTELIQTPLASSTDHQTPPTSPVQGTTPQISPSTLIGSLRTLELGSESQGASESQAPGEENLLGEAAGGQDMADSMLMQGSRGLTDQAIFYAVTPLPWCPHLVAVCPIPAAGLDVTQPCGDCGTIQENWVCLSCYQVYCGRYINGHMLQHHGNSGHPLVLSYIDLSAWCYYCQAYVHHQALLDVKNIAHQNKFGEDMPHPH

[1] = log[inhibitor(M)] -10,5850266520292*

SMILES: CC(=O)N[C@@H](CCCCN)C(=O)NCC(=O)NCC(=O)N[C@@H](CCCCN)C(=O)NCC(=O)N[C@@H](CC(C)C)C(=O)NCC(=O)N[C@@H](CCCCCC(=O)NO)C(=O)NCC(=O)NCC(=O)N[C@@H](C)C(=O)N[C@@H](CCCCN)C(=O)N[C@@H](CCCNC(=N)N)C(=O)N[C@@H](Cc1c[nH]cn1)C(=O)N[C@@H](CCCNC(=N)N)C(=O)N[C@@H](Cc1c[nH]c2ccccc12)C(N)=O [1a] (Ac-KGGKGLG[Asu](NHOH)GGAKRHRW-NH2)
- residual enzymatic activity relative to control wells (HDAC8; log[inhibitor(M)] -4.30103): 0.7299 and 0.6853
- residual enzymatic activity relative to control wells (HDAC8; log[inhibitor(M)] -5): 2.535 and 2.3091
- residual enzymatic activity relative to control wells (HDAC8; log[inhibitor(M)] -5.69897): 8.883 and 8.651
- residual enzymatic activity relative to control wells (HDAC8; log[inhibitor(M)] -6.39794): 23.8025 and 24.0279
- residual enzymatic activity relative to control wells (HDAC8; log[inhibitor(M)] -7.09691): 53.2804 and 53.6221
- residual enzymatic activity relative to control wells (HDAC8; log[inhibitor(M)] -7.79588): 81.5639 and 82.7228
- residual enzymatic activity relative to control wells (HDAC8; log[inhibitor(M)] -8.49485): 92.8692 and 94.6574
- residual enzymatic activity relative to control wells (HDAC8; log[inhibitor(M)] -9.19382): 96.2557 and 98.5897
- residual enzymatic activity relative to control wells (HDAC8; log[inhibitor(M)] -9.89279): 97.4874 and 100.887
- residual enzymatic activity relative to control wells (HDAC8; [1]): 99,4860668* and 101,450216*
- residual enzymatic activity relative to control wells (HDAC2; log[inhibitor(M)] -5): 2.133 and 2.791
- residual enzymatic activity relative to control wells (HDAC2; log[inhibitor(M)] -5.69897): 7.69 and 10.6271
- residual enzymatic activity relative to control wells (HDAC2; log[inhibitor(M)] -7.79588): 81.9038 and 87.9722
- residual enzymatic activity relative to control wells (HDAC2; [1]): 96,4513363* and 102,627848*
- residual enzymatic activity relative to control wells (HDAC1; log[inhibitor(M)] -4.30103): 0.3873 and 0.804
- residual enzymatic activity relative to control wells (HDAC1; log[inhibitor(M)] -5): 1.615 and 1.98
- residual enzymatic activity relative to control wells (HDAC1; log[inhibitor(M)] -5.69897): 4.97 and 7.056
- residual enzymatic activity relative to control wells (HDAC1; log[inhibitor(M)] -6.39794): 17.3755 and 23.9522
- residual enzymatic activity relative to control wells (HDAC1; log[inhibitor(M)] -7.09691): 42.4661 and 51.6182
- residual enzymatic activity relative to control wells (HDAC1; log[inhibitor(M)] -7.79588): 69.6554 and 78.2753
- residual enzymatic activity relative to control wells (HDAC1; log[inhibitor(M)] -8.49485): 90.2096 and 95.3244
- residual enzymatic activity relative to control wells (HDAC1; log[inhibitor(M)] -9.19382): 98.0899 and 101.545
- residual enzymatic activity relative to control wells (HDAC1; log[inhibitor(M)] -9.89279): 100.633 and 103.923
- residual enzymatic activity relative to control wells (HDAC1; [1]): 100,638665* and 104,135042*
- residual enzymatic activity relative to control wells (HDAC3/NCoR2; log[inhibitor(M)] -4.30103): 0,27707809* and 0,48240325*
- residual enzymatic activity relative to control wells (HDAC3/NCoR2; log[inhibitor(M)] -5): 1.078 and 1.224
- residual enzymatic activity relative to control wells (HDAC3/NCoR2; log[inhibitor(M)] -5.69897): 2.835 and 3.644
- residual enzymatic activity relative to control wells (HDAC3/NCoR2; log[inhibitor(M)] -6.39794): 8.976 and 10.8935
- residual enzymatic activity relative to control wells (HDAC3/NCoR2; log[inhibitor(M)] -7.09691): 20.3107 and 23.0019
- residual enzymatic activity relative to control wells (HDAC3/NCoR2; log[inhibitor(M)] -7.79588): 35.6703 and 40.8157
- residual enzymatic activity relative to control wells (HDAC3/NCoR2; log[inhibitor(M)] -8.49485): 61.9563 and 69.3477
- residual enzymatic activity relative to control wells (HDAC3/NCoR2; log[inhibitor(M)] -9.19382): 85.7851 and 89.42
- residual enzymatic activity relative to control wells (HDAC3/NCoR2; log[inhibitor(M)] -9.89279): 97.8645 and 95.529
- residual enzymatic activity relative to control wells (HDAC3/NCoR2; log[inhibitor(M)] -10.585): 99.8741 and 99.2523
- residual enzymatic activity relative to control wells (HDAC6; log[inhibitor(M)] -4.30103): 2.005 and 0.9042
- residual enzymatic activity relative to control wells (HDAC6; log[inhibitor(M)] -5): 3.396 and 1.499
- residual enzymatic activity relative to control wells (HDAC6; log[inhibitor(M)] -5.69897): 3.721 and 2.924
- residual enzymatic activity relative to control wells (HDAC6; log[inhibitor(M)] -6.39794): 6.701 and 7.197
- residual enzymatic activity relative to control wells (HDAC6; log[inhibitor(M)] -7.09691): 17.8452 and 18.76
- residual enzymatic activity relative to control wells (HDAC6; log[inhibitor(M)] -7.79588): 40.4588 and 44.1884
- residual enzymatic activity relative to control wells (HDAC6; log[inhibitor(M)] -8.49485): 67.624 and 70.0247
- residual enzymatic activity relative to control wells (HDAC6; log[inhibitor(M)] -9.19382): 82.7418 and 78.8697
- residual enzymatic activity relative to control wells (HDAC6; log[inhibitor(M)] -9.89279): 94.6266 and 87.8667
- residual enzymatic activity relative to control wells (HDAC6; log[inhibitor(M)] -10.585): 92.0979 and 95.7297

Source: PMC7782793, “Hydroxamic acid-modified peptide microarrays for profiling isozyme-selective interactions and inhibition of histone deacetylases” (Nature Communications, 2021)
